Experimental data as given in patent US7868005B2, “Pyrazinyl substituted piperazine-piperidines with CXCR3 antagonist activity” (Schering Corporation, priority 2005, dated 2011).
pIC50: −log10 of the molar value.

Target: T1, human CXCR3 (N-delta 4) (Homo sapiens, UniProt P49682)
T1 construct: CD8 leader (N); Flag; expressed in transfected cells; membranes prepared
T1 sequence (P49682 5-368 limits assumed): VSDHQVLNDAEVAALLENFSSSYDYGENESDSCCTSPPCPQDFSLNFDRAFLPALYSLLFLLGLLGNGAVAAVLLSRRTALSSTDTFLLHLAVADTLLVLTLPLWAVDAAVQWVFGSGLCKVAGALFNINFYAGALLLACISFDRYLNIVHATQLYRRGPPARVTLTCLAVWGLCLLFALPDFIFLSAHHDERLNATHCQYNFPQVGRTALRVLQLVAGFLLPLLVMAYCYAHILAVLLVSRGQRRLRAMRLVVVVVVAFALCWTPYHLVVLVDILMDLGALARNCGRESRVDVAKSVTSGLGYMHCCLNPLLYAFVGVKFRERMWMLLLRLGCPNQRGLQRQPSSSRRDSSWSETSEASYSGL
Test: Human CXCR3 (N-delta 4) Scintillation Proximity Assay (SPA), [125I] IP-10 binding to Ba/F3-hCXCR3 membranes
Details: IC50 rating, Table 1; read-out: IC50

Row | SMILES | pIC50
1 | CC[C@H]1CN(c2nc(N)c(C(N)=O)nc2Cl)CCN1C1CCN(Cc2ccc(Cl)cc2C2OC(=O)NC2=O)CC1 (stereo partly shown) [compound 407] | < 7.00
2 | CC[C@H]1CN(c2nc(N)c(C(=O)NCCO)nc2Cl)CCN1C1CCN(Cc2ccc(Cl)cc2OCCNC(=O)C(C)(C)C)CC1 [compound 129] | > 7.60
3 | CC[C@H]1CN(c2ncc(C(=O)NC3CC3)nc2C)CCN1C1CCN([C@@H](C(=O)OC)c2ccc(F)c(F)c2)CC1 [compound 486] | > 7.60
4 | CC[C@H]1CN(c2nc(N)c(C(=O)NCCNS(N)(=O)=O)nc2Cl)CCN1C1CCN([C@H](CO)c2ccc(Cl)cc2)CC1 [compound 262] | < 7.00
5 | CC[C@H]1CN(c2nc(N)c(C(=O)NCCO)nc2Cl)CCN1C1CCN(Cc2ccc(C#CC(C)(C)O)cc2)CC1 [compound 144] | > 7.60
6 | CC[C@H]1CN(c2nc(N)c(C(=O)NCCNS(C)(=O)=O)nc2Cl)CCN1C1CCN(Cc2ccc(Cl)cc2N2CC[C@@H](O)C2)CC1 [compound 248] | 7.00 to 7.60
7 | CC[C@H]1CN(c2nc(N)c(C(N)=O)nc2Cl)CCN1C1CCN(Cc2ccc(Cl)cc2S(=O)(=O)NC)CC1 [compound 429] | < 7.00
8 | CC[C@H]1CN(c2nc(N)c(C(=O)NCCO)nc2Cl)CCN1C1CCN([C@@H](CO)c2ccc(C#N)cc2)CC1 [compound 116] | > 7.60
9 | CC[C@H]1CN(c2nc(N)c(C(N)=O)nc2Cl)CCN1C1CCN(Cc2ccc(Cl)cc2CCNC(=O)OC)CC1 [compound 39] | 7.00 to 7.60
10 | CC[C@H]1CN(c2ncc(C(N)=O)nc2C)CCN1C1CCN(Cc2ccc(Cl)cc2)CC1 [compound 412] | > 7.60
11 | CC[C@H]1CN(c2ncc(C(N)=O)nc2OC)CCN1C1CCN(C(=O)c2ccc(Cl)cc2)CC1 [compound 379] | < 7.00
12 | CC[C@H]1CN(c2ncc(C(N)=O)nc2C)[C@H](C)CN1C1CCN(Cc2ccc(C#N)cc2)CC1 [compound 434] | > 7.60
13 | CC[C@H]1CN(c2nc(N)c(C(=O)NCCO)nc2Cl)CCN1C1CCN(Cc2ccc(OC(F)(F)F)cc2OCCO)CC1 [compound 168] | > 7.60
14 | CC[C@H]1CN(c2nc(N)c(C(=O)NCCO)nc2Cl)CCN1C1CCN(Cc2ccc(Cl)cc2C(=O)OC)CC1 [compound 142] | > 7.60
15 | CC[C@H]1CN(c2nc(N)c(C(=O)N[C@@H](C)CO)nc2Cl)CCN1C1CCN(C(=O)c2ccc(Cl)cc2)CC1 [compound 323] | 7.00 to 7.60
16 | CC[C@H]1CN(c2nc(N)c(C(=O)NC)nc2Cl)CCN1C1CCN(CCCOc2ccc(F)cc2)CC1 [compound 78] | < 7.00
17 | CC[C@H]1CN(c2nc(N)c(C(=O)NCCO)nc2Cl)CCN1C1CCN(Cc2ccc(OC(F)(F)F)cc2OCCCCO)CC1 [compound 119] | > 7.60
18 | CCOC(=O)C1CCC(Oc2ccc(CN3CCC(N4CCN(c5nc(N)c(C(N)=O)nc5Cl)C[C@@H]4CC)CC3)cc2)CC1 (stereo partly shown) [compound 53] | < 7.00
19 | CCOC(=O)/N=C(\N)c1cc(Cl)ccc1CN1CCC(N2CCN(c3nc(N)c(C(=O)NCCO)nc3Cl)C[C@@H]2CC)CC1 [compound 114] | > 7.60
20 | CC[C@H]1CN(c2nc(N)c(C(=O)NC3CC3)nc2Cl)CCN1C1CCN(Cc2ccc(Cl)cc2C(=O)OC)CC1 [compound 90] | > 7.60
21 | CC[C@H]1CN(c2nc(N)c(C(=O)NCCO)nc2Cl)CCN1C1CCN(Cc2ccc(Cl)c(OCCS(C)(=O)=O)c2)CC1 [compound 410] | > 7.60
22 | CC[C@H]1CN(c2nc(N)c(C(=O)NC3CC3)nc2Cl)CCN1C1CCN(Cc2ccc(C#N)cc2OCCOC)CC1 [compound 89] | > 7.60
23 | CC[C@H]1CN(c2ncc(C(=O)NC3CC3)nc2C)[C@H](C)CN1C1CCN([C@H](CO)c2ccc(Cl)cc2)CC1 [compound 481] | > 7.60
24 | CC[C@H]1CN(c2nc(N)c(C(N)=O)nc2Cl)CCN1C1CCN(Cc2ccc(Cl)cc2)CC1 [compound 1] | > 7.60

Row | SMILES | pIC50
25 | CC[C@H]1CN(c2nc(N)c(C(=O)NCCO)nc2Cl)CCN1C1CCN(Cc2ccc(Cl)cc2C(C)(C)O)CC1 [compound 145] | > 7.60
26 | CC[C@H]1CN(c2nc(N)c(C(=O)NCCNS(=O)(=O)N(C)C)nc2Cl)CCN1C1CCN(Cc2ccc(C#N)cc2)CC1 [compound 255] | 7.00 to 7.60
27 | CC[C@H]1CN(c2nc(N)c(C(=O)OC)nc2Cl)CCN1C1CCN(Cc2ccc(Cl)cc2F)CC1 [compound 295] | > 7.60
28 | CC[C@H]1CN(c2nc(N)c(C(=O)NCCO)nc2Cl)CCN1C1CCN(Cc2ccc(OC(F)(F)F)cc2OCCOC)CC1 [compound 118] | > 7.60
29 | CC[C@H]1CN(c2ncc(C(=O)NC)nc2NC)CCN1C1CCN(C(=O)c2ccc(Cl)cc2)CC1 [compound 384] | < 7.00
30 | CC[C@H]1CN(c2nc(N)c(C(=O)N[C@H](CO)C(C)C)nc2Cl)CCN1C1CCN(C(=O)c2ccc(Cl)cc2)CC1 [compound 329] | < 7.00
31 | CC[C@H]1CN(c2nc(N)c(C(=O)NC3CCOC3=O)nc2Cl)CCN1C1CCN(Cc2ccc(Cl)cc2)CC1 (stereo partly shown) [compound 277] | > 7.60
32 | CC[C@H]1CN(c2nc(N)c(C(=O)NCCO)nc2Cl)CCN1C1CCN([C@@H](CO)c2ccc(F)c(F)c2)CC1 [compound 122] | > 7.60
33 | CC[C@H]1CN(c2ncc(C(=O)NC)nc2C)CCN1C1CCN(C(=O)c2ccc(Cl)cc2)CC1 [compound 437] | > 7.60
34 | CC[C@H]1CN(c2nc(N)c(C(=O)NCCO)nc2Cl)CCN1C1CCN(C(=O)c2ccc(F)c(F)c2N)CC1 [compound 348] | 7.00 to 7.60
35 | CC[C@H]1CN(c2nc(N)c(C(=O)NCCO)nc2Cl)CCN1C1CCN(Cc2ccc(Cl)cc2CO)CC1 [compound 107] | > 7.60
36 | CC[C@H]1CN(c2nc(N)c(C(=O)NCCO)nc2Cl)CCN1C1CCN(Cc2ccc(Cl)cc2OCC(N)=O)CC1 [compound 149] | > 7.60
37 | C[C@@H]1CN(C2CCN(Cc3ccc(Cl)cc3F)CC2)[C@@H](C)CN1c1cnc(C(N)=O)cn1 [compound 289] | < 7.00
38 | CC[C@H]1CN(c2nc(N)c(C(=O)NCCO)nc2Cl)CCN1C1CCN(Cc2c(F)cc(F)c(F)c2O)CC1 [compound 201] | < 7.00
39 | CC[C@H]1CN(c2nc(N)c(C(=O)NC3CC3)nc2Cl)CCN1C1CCN(C(=O)c2ccc(Cl)cc2O)CC1 [compound 314] | > 7.60
40 | CC[C@H]1CN(c2nc(N)c(C(=O)NCCO)nc2Cl)CCN1C1CCN(Cc2ccc(C#N)cc2)CC1 [compound 121] | > 7.60
41 | CC[C@H]1CN(c2nc(N)c(C(=O)NCCO)nc2Cl)CCN1C1CCN(Cc2ccc(F)c(F)c2N2CCOCC2)CC1 [compound 183] | 7.00 to 7.60
42 | CC[C@H]1CN(c2nc(N)c(C(N)=O)nc2Cl)CCN1C1CCN(Cc2ccc(F)c(F)c2N2CCC[C@H]2C(C)(C)O)CC1 [compound 60] | < 7.00
43 | CC[C@H]1CN(c2nc(N)c(C(=O)OC)nc2Cl)CCN1C1CCN(Cc2ccc(Cl)cc2C#N)CC1 [compound 300] | < 7.00
44 | CC[C@H]1CN(c2nc(N)c(C(N)=O)nc2Cl)CCN1C1CCN(C(CNS(C)(=O)=O)c2ccc(Cl)cc2)CC1 (stereo partly shown) [compound 58] | < 7.00
45 | CC[C@H]1CN(c2nc(N)c(C(=O)NCCNC(N)=O)nc2Cl)CCN1C1CCN(C(CO)c2ccc(Cl)cc2)CC1 (stereo partly shown) [compound 231] | > 7.60
46 | CC[C@H]1CN(c2nc(N)c(C(=O)NCCO)nc2Cl)CCN1C1CCN(Cc2ccc(Cl)cc2OCCOC)CC1 [compound 115] | > 7.60
47 | CC[C@H]1CN(c2ncc(C(N)=O)nc2C)CCN1C1CCN(C(=O)c2ccc(F)c(F)c2)CC1 [compound 408] | 7.00 to 7.60

Same assay, conditions: human; read-out: human IC50

Row | SMILES | pIC50
48 | CC[C@H]1CN(c2ncc(C(=O)NC3CC3)nc2C)CCN1C1CCN(Cc2ccc(F)c(F)c2)CC1 [Formula 11] | > 9.00

Same assay, conditions: read-out: IC50

Row | SMILES | pIC50
49 | CC[C@H]1CN(c2nc(N)c(C(=O)NCCO)nc2Cl)CCN1C1CCN(Cc2ccc(Cl)cc2CO)CC1 [compound 107] | 9.70
